Measurements from US9255295B2, “Method for evaluating the sensitizing potential of a test compound” (IMMUNOSEARCH, priority 2010, dated 2016).

What was measured:
[1] = official classification: non-sensitizer, irritant, or sensitizing Extreme/Strong/Moderate/Weak; cited from earlier work
[2] = test system: genes specific for sensitization (BRAK, CTSS, DAPK2, FABP4, HSP27, IL18, HSP90, IL1R2, TPSAB1, CXCR1, DEFB1, DHFR, EHF, IVL, KRT4, MELANA, NGAL, PDZK1IP1, PI3 …); assay: Expression of the other (non-ARE) sensitization-specific genes in EPISKIN reconstructed skin (quantitative RT-PCR); format: cell-based, human

Oc1ccc(O)cc1 [Hydroquinone]
Class [1]: S
BRAK expression compared to control ([2]; 0.1%): 0.7
BRAK grade (NUMBER OF GENES) ([2]; 0.1%): 0 (if this expression is lower, the grade is 0)
CTSS expression compared to control ([2]; 0.1%): 0.7
CTSS grade (NUMBER OF GENES) ([2]; 0.1%): 0 (if this expression is lower, the grade is 0)
CXCR1 expression compared to control ([2]; 0.1%): 2.9
CXCR1 grade (NUMBER OF GENES) ([2]; 0.1%): 1 (If the expression is greater than 1.3 compared to the control, a grade of 11s given)
DAPK2 expression compared to control ([2]; 0.1%): 1.1
DAPK2 grade (NUMBER OF GENES) ([2]; 0.1%): 0 (if this expression is lower, the grade is 0)
DEFB1 expression compared to control ([2]; 0.1%): 1.7
DEFB1 grade (NUMBER OF GENES) ([2]; 0.1%): 1 (If the expression is greater than 1.3 compared to the control, a grade of 11s given)
DHFR expression compared to control ([2]; 0.1%): 0.4
DHFR grade (NUMBER OF GENES) ([2]; 0.1%): 0 (if this expression is lower, the grade is 0)
EHF expression compared to control ([2]; 0.1%): 1.2
EHF grade (NUMBER OF GENES) ([2]; 0.1%): 0 (if this expression is lower, the grade is 0)
FABP4 expression compared to control ([2]; 0.1%): 1.1
FABP4 grade (NUMBER OF GENES) ([2]; 0.1%): 0 (if this expression is lower, the grade is 0)
HSP27 expression compared to control ([2]; 0.1%): 0.8
HSP27 grade (NUMBER OF GENES) ([2]; 0.1%): 0 (if this expression is lower, the grade is 0)
HSP90 expression compared to control ([2]; 0.1%): 1.3
HSP90 grade (NUMBER OF GENES) ([2]; 0.1%): 0 (if this expression is lower, the grade is 0)
IL18 expression compared to control ([2]; 0.1%): 0.8
IL18 grade (NUMBER OF GENES) ([2]; 0.1%): 0 (if this expression is lower, the grade is 0)
IVL expression compared to control ([2]; 0.1%): 1.6
IVL grade (NUMBER OF GENES) ([2]; 0.1%): 1 (If the expression is greater than 1.3 compared to the control, a grade of 11s given)
KRT4 expression compared to control ([2]; 0.1%): 2.0
KRT4 grade (NUMBER OF GENES) ([2]; 0.1%): 1 (If the expression is greater than 1.3 compared to the control, a grade of 11s given)
MELANA expression compared to control ([2]; 0.1%): 0.7
MELANA grade (NUMBER OF GENES) ([2]; 0.1%): 0 (if this expression is lower, the grade is 0)
NGAL expression compared to control ([2]; 0.1%): 1.5
NGAL grade (NUMBER OF GENES) ([2]; 0.1%): 1 (If the expression is greater than 1.3 compared to the control, a grade of 11s given)
P13 expression compared to control ([2]; 0.1%): 1.1
P13 grade (NUMBER OF GENES) ([2]; 0.1%): 0 (if this expression is lower, the grade is 0)
PDZK1iP1 expression compared to control ([2]; 0.1%): 1.2
PDZK1iP1 grade (NUMBER OF GENES) ([2]; 0.1%): 0 (if this expression is lower, the grade is 0)
SENS >1.3 (NUMBER OF GENES) ([2]; 0.1%): 2
SERPINB3 expression compared to control ([2]; 0.1%): 1.1
SERPINB3 grade (NUMBER OF GENES) ([2]; 0.1%): 0 (if this expression is lower, the grade is 0)
TOTAL SENS (NUMBER OF GENES) ([2]; 0.1%): 5
BRAK expression compared to control ([2]; 1%): 0.8
BRAK grade (NUMBER OF GENES) ([2]; 1%): 0 (if this expression is lower, the grade is 0)
CTSS expression compared to control ([2]; 1%): 1.2
CTSS grade (NUMBER OF GENES) ([2]; 1%): 0 (if this expression is lower, the grade is 0)
CXCR1 expression compared to control ([2]; 1%): 2.8
CXCR1 grade (NUMBER OF GENES) ([2]; 1%): 1 (If the expression is greater than 1.3 compared to the control, a grade of 11s given)
DAPK2 expression compared to control ([2]; 1%): 1.2
DAPK2 grade (NUMBER OF GENES) ([2]; 1%): 0 (if this expression is lower, the grade is 0)
DEFB1 expression compared to control ([2]; 1%): 1.1
DEFB1 grade (NUMBER OF GENES) ([2]; 1%): 0 (if this expression is lower, the grade is 0)
DHFR expression compared to control ([2]; 1%): 0.8
DHFR grade (NUMBER OF GENES) ([2]; 1%): 0 (if this expression is lower, the grade is 0)
EHF expression compared to control ([2]; 1%): 1.1
EHF grade (NUMBER OF GENES) ([2]; 1%): 0 (if this expression is lower, the grade is 0)
FABP4 expression compared to control ([2]; 1%): 1.1
FABP4 grade (NUMBER OF GENES) ([2]; 1%): 0 (if this expression is lower, the grade is 0)
HSP27 expression compared to control ([2]; 1%): 0.9
HSP27 grade (NUMBER OF GENES) ([2]; 1%): 0 (if this expression is lower, the grade is 0)
HSP90 expression compared to control ([2]; 1%): 1.1
HSP90 grade (NUMBER OF GENES) ([2]; 1%): 0 (if this expression is lower, the grade is 0)
IL18 expression compared to control ([2]; 1%): 0.8
IL18 grade (NUMBER OF GENES) ([2]; 1%): 0 (if this expression is lower, the grade is 0)
IVL expression compared to control ([2]; 1%): 1.5
IVL grade (NUMBER OF GENES) ([2]; 1%): 1 (If the expression is greater than 1.3 compared to the control, a grade of 11s given)
KRT4 expression compared to control ([2]; 1%): 1.5
KRT4 grade (NUMBER OF GENES) ([2]; 1%): 1 (If the expression is greater than 1.3 compared to the control, a grade of 11s given)
MELANA expression compared to control ([2]; 1%): 0.7
MELANA grade (NUMBER OF GENES) ([2]; 1%): 0 (if this expression is lower, the grade is 0)
NGAL expression compared to control ([2]; 1%): 1.7
NGAL grade (NUMBER OF GENES) ([2]; 1%): 1 (If the expression is greater than 1.3 compared to the control, a grade of 11s given)
P13 expression compared to control ([2]; 1%): 1.2
P13 grade (NUMBER OF GENES) ([2]; 1%): 0 (if this expression is lower, the grade is 0)
PDZK1iP1 expression compared to control ([2]; 1%): 1.0
PDZK1iP1 grade (NUMBER OF GENES) ([2]; 1%): 0 (if this expression is lower, the grade is 0)
SENS >1.3 (NUMBER OF GENES) ([2]; 1%): 5
SERPINB3 expression compared to control ([2]; 1%): 1.0
SERPINB3 grade (NUMBER OF GENES) ([2]; 1%): 0 (if this expression is lower, the grade is 0)
